From PubChem BioAssay (NCI)
Values joined by “and” are separate entries in the source; they are usually repeats but may differ in a detail not shown here. Equal values may be shown once.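 Following 48 hours of exposure in 96-well plates, responses at five concentrations were used to interpolate endpoints linearly. GI50 is the concentration that inhibits growth by half. TGI marks complete inhibition of growth.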

Columns and labels:
Test in all cases: inhibition of tumour cell growth, NCI panel, 48 h
A498 renal = tested on: A498 renal
CCRF-CEM leukemia = tested on: CCRF-CEM leukemia
HT29 colon = tested on: HT29 colon
IGROV1 ovarian = tested on: IGROV1 ovarian
NCI-H522 lung = tested on: NCI-H522 lung
SK-MEL-2 melanoma = tested on: SK-MEL-2 melanoma
SK-MEL-28 melanoma = tested on: SK-MEL-28 melanoma
SK-MEL-5 melanoma = tested on: SK-MEL-5 melanoma
UACC-62 melanoma = tested on: UACC-62 melanoma
UO-31 renal = tested on: UO-31 renal

SMILES | TGI (A498 renal) | GI50 (CCRF-CEM leukemia) [µM] | TGI (CCRF-CEM leukemia) [µM] | GI50 (HT29 colon) [µM] | TGI (HT29 colon) | TGI (IGROV1 ovarian) | GI50 (NCI-H522 lung) | TGI (NCI-H522 lung) | GI50 (SK-MEL-2 melanoma) [µM] | TGI (SK-MEL-2 melanoma) | GI50 (SK-MEL-28 melanoma) [µM] | TGI (SK-MEL-28 melanoma) | GI50 (SK-MEL-5 melanoma) [µM] | TGI (SK-MEL-5 melanoma) | GI50 (UACC-62 melanoma) [µM] | TGI (UACC-62 melanoma) | GI50 (UO-31 renal) [µM] | TGI (UO-31 renal) | GI50 (A498 renal) [µM] | GI50 (IGROV1 ovarian) [µM]
CNc1ccc(N=Nc2cccc3ncccc23)cc1 | > 68.4 µM | > 24 | > 100 | 37.5 | > 100 µM | > 100 µM | 43.7 µM | > 100 µM | > 100 | > 100 µM | > 100 | > 100 µM | 23 | > 100 µM | 13.1 | > 100 µM | 0.89 | > 100 µM | – | –
Nc1ccc2c(SCC(=O)Nc3ccccc3-c3ccccc3NC(=O)CSc3c4ccccc4nc4cc(N)ccc34)c3ccccc3nc2c1 | 65.9 µM | – | > 100 | – | > 100 µM | 83 µM | – | 31.8 µM | – | 68 µM | – | 52.5 µM | – | 30.1 µM | – | 56.5 µM | – | 58.4 µM | – | –
COc1ccc(-c2nn(-c3cccc(Cl)c3)cc2/C=C2\C(=N)N(c3ccccc3)N=C2N)cc1 | > 78.8 µM | 0.655 | > 58.7 | 2.57 | 24.5 µM | > 84.8 µM | 0.916 µM | 23 µM | 1.66 | 12.6 µM | 6.59 | > 100 µM | 2.16 | 7.73 µM | 0.331 | 3.75 µM | 0.587 | 25.8 µM | 11.2 | 2.1
COc1cc(-c2nn3c(=O)n(-c4ccc(Cl)cc4)c(=O)nc3s2)cc(OC)c1OC | > 100 µM | > 5 | > 100 | > 50 | > 100 µM | > 100 µM | > 50 µM | > 100 µM | > 50 | > 100 µM | > 50 | > 100 µM | – | > 100 µM | > 100 | > 100 µM | > 50 | > 100 µM | > 50 | > 50
O=C1c2c(O)ccc(O)c2C(=O)c2c(NCCNCCO)ccc(NCCNCCO)c21 | 0.555 µM and 0.588 µM and 0.59 µM | 0.0139 | – | – | 1.05 µM and 0.761 µM and 3.63 µM | 1.41 µM and 3.13 µM and 2.21 µM | 0.0232 µM and 0.00969 µM and 0.0544 µM | 0.101 µM and 0.0831 µM and 0.574 µM | – | 0.657 µM and 0.6 µM and 0.926 µM | – | 1.66 µM and 1.03 µM and 2.31 µM | – | 0.689 µM and 0.329 µM and 0.657 µM | – | 0.218 µM and 0.756 µM and 0.595 µM | – | 0.835 µM and 0.668 µM and 2.55 µM | 0.0721 | –
COc1ccc(-c2conc2-c2ccccc2)cc1 | 0.58 µM | 0.292 | > 100 | 0.112 | > 100 µM | > 100 µM | 0.17 µM | 15.9 µM | 0.585 | > 100 µM | 10.8 | > 100 µM | 0.441 | 4.47 µM | 0.689 | > 100 µM | 0.64 | 40.9 µM | 0.107 | 0.498
OCCN(CCO)c1ncnc2c1sc(=S)n2-c1ccccc1 | > 100 µM | – | > 100 | – | > 100 µM | > 100 µM | – | > 100 µM | – | > 100 µM | – | > 100 µM | – | > 100 µM | – | > 100 µM | – | > 100 µM | – | –
O=C(Nc1cccc(Cl)c1)c1cc(Cl)ccc1O | 0.764 µM | 2.82 | 22 | 2.49 | 7.12 µM | > 58 µM | 0.32 µM | 1.78 µM | 0.294 | 0.918 µM | 0.415 | 3.77 µM | 0.274 | 0.857 µM | 0.282 | 1.21 µM | 0.369 | 7.08 µM | 0.256 | 1.61
COC(=O)Cc1cc(=O)oc2c1C(=O)CCC2 | > 100 µM | – | > 100 | – | > 100 µM | > 100 µM | – | > 100 µM | – | > 100 µM | – | > 100 µM | – | > 100 µM | – | > 100 µM | – | > 100 µM | – | –
COC(=O)C1=C(C(=O)OC)C(C(=O)OC)C(C(=O)OC)C(C(=O)OC)(C(=O)OC)C(C(=O)OC)=C1C(=O)OC (centres undefined) | 29.3 µM | – | 8.72 | – | 35.3 µM | 36.8 µM | – | 4.07 µM | – | 35.1 µM | – | 29.3 µM | – | 31.6 µM | – | 31 µM | – | 30.7 µM | – | –
O=C1[C@H]2ON(c3ccccc3)C(c3cccc([N+](=O)[O-])c3)[C@H]2C(=O)N1c1ccc(Cc2ccc(N3C(=O)[C@@H]4ON(c5ccccc5)C(c5cccc([N+](=O)[O-])c5)[C@@H]4C3=O)cc2)cc1 (some centres undefined) | 97.5 µM | – | > 100 | – | > 100 µM | > 100 µM | – | > 100 µM | – | > 100 µM | – | > 100 µM | – | > 100 µM | – | > 100 µM | – | > 100 µM | – | –
CCOc1ccccc1NC(=O)CCC(=O)NN | > 100 µM | – | > 100 | – | > 100 µM | > 100 µM | – | > 100 µM | – | > 100 µM | – | > 100 µM | – | > 100 µM | – | > 100 µM | – | > 100 µM | – | –
COC(=O)C1=C(C(=O)OC)N(C(C)C)[C@H]2C(C(=O)OC)=C(C(=O)OC)N(C(C)C)[C@@H]12 | > 100 µM | – | > 100 | – | > 100 µM | > 100 µM | – | > 100 µM | – | > 100 µM | – | > 100 µM | – | > 100 µM | – | > 100 µM | – | > 100 µM | – | –
O=C1OC(c2ccc(Cl)c3ccccc23)c2ccccc21 (centres undefined) | > 100 µM | – | > 100 | – | > 100 µM | > 100 µM | – | > 100 µM | – | > 100 µM | – | > 100 µM | – | > 100 µM | – | > 100 µM | – | > 100 µM | – | –
CCOc1cccc(/C=N/NC(=O)Cc2ccc(Nc3ccnc(C(F)(F)F)c3)cc2)c1O | 67 µM | 0.328 | 2.76 | 8 | 78.6 µM | > 100 µM | 4.76 µM | 33.2 µM | 11.4 | 45 µM | 2.97 | > 100 µM | 1.67 | 5.99 µM | 1.64 | 14.7 µM | 0.986 | 20.7 µM | 4.62 | 2.27
Cc1nc2cc(Nc3nc(Nc4ccc(F)cc4)nc(-c4ccc(Cl)cc4)n3)ccc2n1Cc1ccccc1 | > 100 µM | 3.35 | > 100 | 4.63 | > 100 µM | > 100 µM | 10.8 µM | 68.2 µM | 4.07 | 41.1 µM | 8.63 | > 100 µM | 3.47 | > 100 µM | 6.3 | > 100 µM | 3.59 | > 100 µM | 4.54 | 5.9
